Like-named read-outs stand apart in the source and are kept apart here.

Assay in all cases: AK assay 384-well format, Prestwick library screening
One experiment deals with E. cloacae. In kind it is cell-based, Enterobacter cloacae. The note with it: for fold induction at 50 µM: Enterobacter cloacae, 3 h.
The test system of the next experiment is E. coli. In kind it is cell-based, Escherichia coli. To be noted: for fold induction at 50 µM: Escherichia coli, 3 h.
The next experiment concerns K. pneumoniae. In kind it is cell-based, Klebsiella pneumoniae. To be noted: for fold induction at 50 µM: Klebsiella pneumoniae, 3 h.
The subject of experiment [1] is A. baumannii strain 98-37-09. In kind it is cell-based, Acinetobacter baumannii. The note with it: for fold induction at 50 µM: Acinetobacter baumannii, 983709, 3 h.
In another experiment the test system is E. faecium. In kind it is cell-based, Enterococcus faecium. The note with it: for fold induction at 50 µM: Enterococcus faecium, 3 h.
The subject of a further experiment is P. aeruginosa. In kind it is cell-based, Pseudomonas aeruginosa. To be noted: for fold induction at 50 µM: Pseudomonas aeruginosa, 3 h.
For experiment [2], the system named is S. aureus strain USA300-0114. In kind it is cell-based, Staphylococcus aureus. To be noted: for fold induction at 50 µM: Staphylococcus aureus, USA300, 3 h.
[3] abbreviates: 50 μM final drug concentration, planktonic, cutoff for positive 3-fold increase.
[4] abbreviates: 50 μM final drug concentration, 384-well format, […].

Turning to `C[C@]12CC[C@@H](O)C[C@H]1CC[C@@H]1[C@@H]2CC[C@]2(C)C(=O)CC[C@@H]12`, the “AK-based Prestwick Library Screening Results, E. cloacae (fold increase in extracellular AK activity)” value with E. cloacae was 1.9. Also, the “AK-based Prestwick Library Screening Results, E. coli (fold increase in extracellular AK activity)” value in the experiment with E. coli turned out to be 1.2. The “AK-based Prestwick Library Screening Results, K. pneumoniae (fold increase in extracellular AK activity)” value in the experiment on K. pneumoniae is listed as 0.9. Besides, the “AK-based Prestwick Library Screening Results, A. baumannii (fold increase in extracellular AK activity)” value in experiment [1] amounted to 0.9. The “AK-based Prestwick Library Screening Results, E. faecium (fold increase in extracellular AK activity)” value with E. faecium turned out to be 1.0. The “AK-based Prestwick Library Screening Results, P. aeruginosa (fold increase in extracellular AK activity)” value in the experiment on P. aeruginosa was determined as 1.1. For the same compound, in experiment [2], the “AK-based Prestwick Library Screening Results, S. aureus (fold increase in extracellular AK activity)” value came to 1.0.

For the compound `COc1ccc2c(c1)[C@]13CCCC[C@@H]1[C@H](C2)N(C)CC3`, the fold induction at 50 µM in the experiment with E. cloacae (planktonic E. cloacae, 50 μM final drug concentration, […], read-out: AK-based Prestwick Library Screening Results, E. cloacae (increase in extracellular AK activity)) is 1.1; with E. coli (planktonic E. coli, 50 μM final drug concentration, […], read-out: AK-based Prestwick Library Screening Results, E. coli (increase in extracellular AK activity)) it was 0.8; in the experiment on K. pneumoniae (planktonic K. pneumoniae, 50 μM final drug concentration, […], read-out: AK-based Prestwick Library Screening Results, K. pneumoniae (increase in extracellular AK activity)), 0.7; in experiment [1] (planktonic A. baumannii, 50 μM final drug concentration, […], read-out: AK-based Prestwick Library Screening Results, A. baumannii (increase in extracellular AK activity)), 0.8; in the experiment on E. faecium (planktonic E. faecium, 50 μM final drug concentration, […], read-out: AK-based Prestwick Library Screening Results, E. faecium (increase in extracellular AK activity)) it was 0.9; in the experiment on P. aeruginosa (planktonic P. aeruginosa, 50 μM final drug concentration, […], read-out: AK-based Prestwick Library Screening Results, P. aeruginosa (increase in extracellular AK activity)), 0.8. Also, the fold induction at 50 µM in experiment [2] (planktonic S. aureus, 50 μM final drug concentration, […], read-out: AK-based Prestwick Library Screening Results, S. aureus (increase in extracellular AK activity)) amounted to 0.7.

`COc1cc2c(cc1OC)C(C)NCC2.Cl` (stereo not drawn): in the experiment with E. cloacae (setting [3]), the “AK-based Prestwick Library Screening Results, E. cloacae (fold increase in extracellular AK activity)” value is listed as 1.5. Also, the “AK-based Prestwick Library Screening Results, E. coli (fold increase in extracellular AK activity)” value in the experiment on E. coli (50 μM final drug concentration, planktonic, […]) came out at 1.3. Moreover, in the experiment with K. pneumoniae (setting [3]), the “AK-based Prestwick Library Screening Results, K. pneumoniae (fold increase in extracellular AK activity)” value worked out at 1.0. For the same compound, the “AK-based Prestwick Library Screening Results, A. baumannii (fold increase in extracellular AK activity)” value in experiment [1] (setting [3]) is 1.0. Besides, the “AK-based Prestwick Library Screening Results, E. faecium (fold increase in extracellular AK activity)” value with E. faecium (setting [3]) came out at 0.9. Further, in the experiment with P. aeruginosa (setting [3]), the “AK-based Prestwick Library Screening Results, P. aeruginosa (fold increase in extracellular AK activity)” value is given as 1.2. Besides, in experiment [2] (setting [3]), the “AK-based Prestwick Library Screening Results, S. aureus (fold increase in extracellular AK activity)” value amounted to 1.0.

For the compound `Cc1ccc(Cl)c(Nc2ccccc2C(=O)O)c1Cl`, the fold induction at 50 µM in the experiment on E. cloacae (planktonic E. cloacae, 50 μM final drug concentration, 384-well, cutoff for positive-scoring molecules 3-fold increase, read-out: AK-based Prestwick Library Screening Results: E. cloacae (increase in extracellular AK activity)) was 1.4; in the experiment on E. coli (planktonic E. coli, 50 μM final drug concentration, 384-well, cutoff for positive-scoring molecules 3-fold increase, read-out: AK-based Prestwick Library Screening Results: E. coli (increase in extracellular AK activity)), 1.1; in the experiment with K. pneumoniae (planktonic K. pneumoniae, 50 μM final drug concentration, 384-well, cutoff for positive-scoring molecules 3-fold increase, read-out: AK-based Prestwick Library Screening Results: K. pneumoniae (increase in extracellular AK activity)) it was 1; in experiment [1] (planktonic A. baumannii, 50 μM final drug concentration, 384-well, cutoff for positive-scoring molecules 3-fold increase, read-out: AK-based Prestwick Library Screening Results: A. baumannii (increase in extracellular AK activity)) it was 1.2; in the experiment with E. faecium (planktonic E. faecium, 50 μM final drug concentration, 384-well, cutoff for positive-scoring molecules 3-fold increase, read-out: AK-based Prestwick Library Screening Results: E. faecium (increase in extracellular AK activity)) it was 1.2; in the experiment on P. aeruginosa (planktonic P. aeruginosa, 50 μM final drug concentration, 384-well, cutoff for positive-scoring molecules 3-fold increase, read-out: AK-based Prestwick Library Screening Results: P. aeruginosa (increase in extracellular AK activity)), 1.2. Also, the fold induction at 50 µM in experiment [2] (planktonic S. aureus, 50 μM final drug concentration, 384-well, cutoff for positive-scoring molecules 3-fold increase, read-out: AK-based Prestwick Library Screening Results: S. aureus (increase in extracellular AK activity)) was determined as 0.6.

Consider `CN1CCc2cccc3c2[C@H]1Cc1ccc(O)c(O)c1-3.CN1CCc2cccc3c2[C@H]1Cc1ccc(O)c(O)c1-3.Cl.Cl.O`, for which, in the experiment with E. cloacae (setting [4]), the “AK-based Prestwick Library Screening Results, E. cloacae (increase in extracellular AK activity)” value is 0.9. The “AK-based Prestwick Library Screening Results, E. coli (increase in extracellular AK activity)” value in the experiment on E. coli (setting [4]) is 0.8. Also, the “AK-based Prestwick Library Screening Results, K. pneumoniae (increase in extracellular AK activity)” value in the experiment on K. pneumoniae (setting [4]) is on record as 0.8. The “AK-based Prestwick Library Screening Results, A. baumannii (increase in extracellular AK activity)” value in experiment [1] (setting [4]) came out at 0.8. The “AK-based Prestwick Library Screening Results, E. faecium (increase in extracellular AK activity)” value in the experiment on E. faecium (setting [4]) is on record as 0.8. Further, in the experiment with P. aeruginosa (setting [4]), the “AK-based Prestwick Library Screening Results, P. aeruginosa (increase in extracellular AK activity)” value was determined as 0.6. For the same compound, the “AK-based Prestwick Library Screening Results, S. aureus (increase in extracellular AK activity)” value in experiment [2] (setting [4]) stood at 0.9.

On to `O=C(O)Cc1cc(I)c(Oc2ccc(O)c(I)c2)c(I)c1`, for which the “AK-based Prestwick Library Screening Results: E. cloacae (increase in extracellular AK activity)” value with E. cloacae (planktonic E. cloacae, 50 μM final drug concentration, 384-well, cutoff for positive-scoring molecules 3-fold increase) is listed as 1.5. Also, the “AK-based Prestwick Library Screening Results: E. coli (increase in extracellular AK activity)” value in the experiment on E. coli (planktonic E. coli, 50 μM final drug concentration, 384-well, cutoff for positive-scoring molecules 3-fold increase) is 1.1. Besides, the “AK-based Prestwick Library Screening Results: K. pneumoniae (increase in extracellular AK activity)” value in the experiment on K. pneumoniae (planktonic K. pneumoniae, 50 μM final drug concentration, 384-well, cutoff for positive-scoring molecules 3-fold increase) worked out at 1.0. For the same compound, the “AK-based Prestwick Library Screening Results: A. baumannii (increase in extracellular AK activity)” value in experiment [1] (planktonic A. baumannii, 50 μM final drug concentration, 384-well, cutoff for positive-scoring molecules 3-fold increase) was 1.1. Further, in the experiment with E. faecium (planktonic E. faecium, 50 μM final drug concentration, 384-well, cutoff for positive-scoring molecules 3-fold increase), the “AK-based Prestwick Library Screening Results: E. faecium (increase in extracellular AK activity)” value is listed as 1.3. Moreover, the “AK-based Prestwick Library Screening Results: P. aeruginosa (increase in extracellular AK activity)” value in the experiment with P. aeruginosa (planktonic P. aeruginosa, 50 μM final drug concentration, 384-well, cutoff for positive-scoring molecules 3-fold increase) came to 1.2. The “AK-based Prestwick Library Screening Results: S. aureus (increase in extracellular AK activity)” value in experiment [2] (planktonic S. aureus, 50 μM final drug concentration, 384-well, cutoff for positive-scoring molecules 3-fold increase) was 0.4.
